This is an account of results in US11453671B2, “Pyrazolopyrimidine inhibitors of JAK kinases and uses thereof” (Genentech, Inc., priority 2020, dated 2022).

Molecules are shown by their SMILES.

Data set [1] can be described thus: Mouse lung tissue binding (equilibrium dialysis, RED). Type of data set: in vitro ADME. As to conditions: mouse lung tissue binding, % bound (Table 3). The protocol:
Mouse lung tissue binding. A high bound fraction or percentage of JAK1/JAK2 inhibitors to lung tissue may be undesirable since it can reduce the amount of free drug available to inhibit JAK1 or JAK2.
(a) Tissue binding experiments were performed in triplicate (n=3) using a Single-Use RED Plate by following the standard protocol. Initially, individual drugs were spiked to tissue homogenates (pH 7.4) to achieve a final concentration of 1 μM, and then 300 μL of drug-tissue homogenate mixtures were transferred to the donor wells of the RED plate which was pre-loaded with 500 μL phosphate buffer saline (133 mM) on the receiver wells. The RED plate was sealed with a gas permeable membrane and placed in a shaking incubator (450 rpm, VWR Symphony™) for 6 hr at 37° C. with 5% CO2. At the end of incubation, aliquots of 30 μL samples were taken out of the RED device and matrix equalized with an equal volume of tissue homogenates or buffer, and resulting samples were then immediately quenched with ice cold acetonitrile (sample:acetonitrile 1:4) containing either propranolol or labetalol as an internal standard. After shaking for 15 min at 500 rpm on a Thermo Scientific Compact Digital MicroPlate Shaker, all samples were then subjected to centrifugation at 3700 rpm for 15 min (Beckman Coulter Allegra X 12R) to remove plasma protein. Subsequently, supernatants were collected and then diluted with an equal volume of water prior to LC-MS/MS analysis.
(b) In an alternate procedure, the extent of lung tissue binding of test compound to mouse lung homogenate may also be determined by equilibrium dialysis using Pierce RED (rapid equilibrium dialysis) devices (Fisher Scientific 89811 & 89809). A 10 mM solution of compound in DMSO was prepared and diluted to 1 mM with DMSO. An aliquot of this 1 mM (4 μL) was added into lung homogenate (dilution factor of 1:9, lung tissue:potassium phosphate buffer (0.05 M, pH 7.4)) to give a final compound incubation concentration of 5 μM with solvent accounting for 0.5% (v/v) of the final incubation volume.
For each assay, the percentage lung tissue bound was determined in triplicate. Lung homogenate (200 μL) was loaded into one side of a RED device insert, in triplicate, and 350 μL of potassium phosphate buffer was loaded into the other side. The RED devices were sealed and incubated for 4 hours at ca. 37° C. on an orbital shaker (˜150 rpm).
Following incubation, an aliquot of lung homogenate (8 μL) and an aliquot of dialysate (72 μL) were matrix matched (lung homogenate with 72 μL phosphate buffer, dialysate with 8 μL lung homogenate) ahead of analysis. Protein was precipitated from the samples with the addition of 160 μL of acetonitrile containing internal standard. The same matrix matching and protein precipitation procedure was performed on lung homogenate aliquots sampled at the start of the experiment (t=0 min samples), for the assessment of the mass balance. The quenched samples were centrifuged (4000 rpm, 30 min, 4° C.) and the resultant supernatant diluted with water (3:1 (v/v), supernatant: water) and the samples analysed for parent compound by liquid chromatography mass spectrometry assay.
The unbound fraction (fu) in lung homogenate was determined from the ratio of the dialysate to homogenate peak area, corrected to take into account the lung homogenate dilution (D) to enable an estimate of whole lung tissue binding using the following equations: Undiluted fu=(1/D)/[((1/Apparent fu)−1)+(1/D)] Corrected fraction bound (%)=(1-undiluted fu)*100

The target in data set [2] is Recombinant human JAK2 kinase domain protein (Residues 812-1132) (Homo sapiens, UniProt O60674). As to the kind of experiment: JAK2 biochemical assay (microfluidic mobility shift, peptide phosphorylation). As to conditions: Enzyme JAK2 Ki (nM), 25 μM ATP, 0.2 nM total JAK2.
Data set [3] addresses T1, recombinant human JAK1 kinase domain protein (Residues 854-1154) (Homo sapiens, UniProt P23458).
T1 construct: human JAK1 kinase domain protein (Residues 854-1154); purchased Proteros Biostructures GmbH (Martinsried, Germany); host or cells: insect cells
In words: JAK1 biochemical assay (microfluidic mobility shift, peptide phosphorylation). Particulars: 25 μM ATP, 1 nM total JAK1; read-out: Enzyme JAK1 Ki. The text has this: JAK1 and JAK2 Biochemical Assays

Data set [4] can be described thus: Cell cytotoxicity assay HEK-293T (CellTiter-Glo, 72 hours). As to conditions: human, HEK-293T cells, Table 3; 72 hours, top concentration of 50 μM; read-out: Cytotox K-293 EC50. Type of data set: cell-based. The text has this:
Cytotoxicity assays. Hepatocyte toxicity, general cytotoxicity or cytotoxicity of unknown mechanism is an undesirable feature for a potential drug, including inhaled drugs. It may be of benefit for an inhaled JAK1 or JAK1/JAK2 inhibitor to have low intrinsic cytotoxicity against various cell types. Typical cell types used to assess cytotoxicity include both primary cells such as human hepatocytes, and proliferating established cell lines such as Jurkat and HEK-293. […] Methods of measuring cytotoxicity are known in the art. In some embodiments, compounds described herein were tested as follows:
(a) Jurkat and HEK293T cells were maintained at a sub confluent density in T175 flasks. Cells were plated at 450 cells/45 μl medium in Greiner 384 well black/clear tissue culture treated plates. (Greiner Catalog #781091). After dispensing cells, plates were equilibrated at room temperature for 30 minutes. After 30 minutes at room temperature, cells were incubated overnight at 37° C. in a CO2 and humidity controlled incubator. The following day, cells were treated with compounds diluted in 100% DMSO (final DMSO concentration on cells=0.5%) with a 10 point dose-response curve with a top concentration of 50 μM. Cells and compounds were then incubated for 72 hours overnight at 37° C. in a CO2 and humidity controlled incubator. After 72 hours of incubation, viability was measured using CellTiterGlo® (Promega Catalog #G7572) to all wells. After incubation at room temperature for 20 minutes, plates were read on EnVision™ (Perkin Elmer Life Sciences) using luminescence mode;
A549 (ATCC® CCL-185™), Jurkat clone E6-1 (ATCC® TIB-152™) and HEK-293T (ATCC® CRL-1573™) cells maintained at a sub-confluent density in T175 flasks were used. Cells in exponential growth phase were plated (450 cells in 45 μL of medium) in Greiner 384-well black/clear tissue culture treated plates (Greiner Catalog No. 781091). After dispensing cells, plates were allowed to equilibrate at room temperature for 30 minutes, after which time the cell plates were placed overnight in a 37° C. CO2 and humidity-controlled incubator. The following day, cells were treated with test agent diluted in 100% DMSO (0.5% final DMSO concentration on cells) with a 10-point titration and a top concentration of 50 μM. Cells and compounds were then incubated for 72 hours in a 37° C. CO2 and humidity-controlled incubator, after which time cell viability was measured by adding CellTiter-Glo® (Promega G7572) reagent to all wells. Plates were incubated at room temperature for 20 minutes and then the well luminescence was read on an EnVision plate reader (Perkin Elmer Life Sciences).

Sequence of Recombinant human JAK2 kinase domain protein (Residues 812-1132) (O60674 812-1132): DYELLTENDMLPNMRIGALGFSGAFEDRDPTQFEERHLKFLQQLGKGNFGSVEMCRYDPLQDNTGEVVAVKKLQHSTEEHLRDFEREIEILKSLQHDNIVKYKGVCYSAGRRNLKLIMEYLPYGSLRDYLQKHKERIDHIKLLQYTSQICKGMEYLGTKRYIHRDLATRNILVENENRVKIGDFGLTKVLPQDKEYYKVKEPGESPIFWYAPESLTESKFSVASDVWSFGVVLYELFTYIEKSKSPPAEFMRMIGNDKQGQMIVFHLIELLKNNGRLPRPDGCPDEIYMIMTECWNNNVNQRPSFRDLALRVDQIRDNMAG
T1 sequence (P23458 854-1154): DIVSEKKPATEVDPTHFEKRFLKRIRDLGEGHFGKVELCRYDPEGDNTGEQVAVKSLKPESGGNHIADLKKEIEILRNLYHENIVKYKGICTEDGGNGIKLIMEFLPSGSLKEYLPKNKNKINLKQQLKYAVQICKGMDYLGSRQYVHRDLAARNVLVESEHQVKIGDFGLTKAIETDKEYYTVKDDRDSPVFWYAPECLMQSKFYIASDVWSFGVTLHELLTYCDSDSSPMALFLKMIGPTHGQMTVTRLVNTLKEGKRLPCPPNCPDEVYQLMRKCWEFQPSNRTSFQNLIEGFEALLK

The term Ki denotes the dissociation constant of the complex between target and ligand, obtained from inhibition or displacement. By EC50 is commonly meant the concentration needed to bring the measured effect to its halfway point. Turning to `CC(CO)S(=O)(=O)c1ccc(OC(F)F)c(-c2nn(C)cc2NC(=O)c2cnn3cccnc23)c1` (single isomer, unassigned) [Example 23, N-[3-[2-(difluoromethoxy)-5-(2-hydroxy-1-methyl-ethyl)sulfonyl-phenyl]-1-methyl-pyrazol-4-yl]pyrazolo[1,5-a]pyrimidine-3-carboxamide], the “Mouse LTB %” value in data set [1] is recorded as 82.1%. The Ki is 0.13 nM in data set [2] and 0.26 nM in data set [3]. Besides, the half-maximal effective concentration (EC50) at 72 h in data set [4] was found to be 11000 nM.

With `CC(CO)S(=O)(=O)c1ccc(OC(F)F)c(-c2nn(C)cc2NC(=O)c2cnn3cccnc23)c1` (single isomer, unassigned) [Example 24, N-[3-[2-(difluoromethoxy)-5-(2-hydroxy-1-methyl-ethyl)sulfonyl-phenyl]-1-methyl-pyrazol-4-yl]pyrazolo[1,5-a]pyrimidine-3-carboxamide], the “Mouse LTB %” value in data set [1] came out at 81.7%. In addition, the inhibition constant Ki turned out to be 0.19 nM in data set [2] and 0.46 nM in data set [3].

As for `Cn1cc(NC(=O)c2cnn3cccnc23)c(-c2cc(S(=O)(=O)C3CCCNC3)ccc2OC(F)F)n1` (single isomer, unassigned) [Example 37, N-[3-[2-(difluoromethoxy)-5-(3-piperidylsulfonyl)phenyl]-1-methyl-pyrazol-4-yl]pyrazolo[1,5-a]pyrimidine-3-carboxamide], the “Mouse LTB %” value in data set [1] was found to be 90.1%. Further, the inhibitory constant (Ki) in data set [2] is 0.54 nM; in data set [3], 0.69 nM. Besides, the concentration giving a half-maximal response (EC50) at 72 h in data set [4] was 31000 nM.

With `C[C@H](O)CS(=O)(=O)c1ccc(OC(F)F)c(-c2nn(C)cc2NC(=O)c2cnn3cccnc23)c1` (stereo in doubt) [Example 15, N-[3-[2-(difluoromethoxy)-5-[rac-(2S)-2-hydroxypropyl]sulfonyl-phenyl]-1-methyl-pyrazol-4-yl]pyrazolo[1,5-a]pyrimidine-3-carboxamide], in data set [1], the “Mouse LTB %” value is 85.7%. Besides, the Ki in data set [2] was 0.16 nM; in data set [3], 0.43 nM. Further, the EC50 at 72 h in data set [4] came out at 25000 nM.

On to `C[C@@H](O)CS(=O)(=O)c1ccc(OC(F)F)c(-c2nn(C)cc2NC(=O)c2cnn3cccnc23)c1` (stereo in doubt) [Example 25, N-[3-[2-(difluoromethoxy)-5-[rac-(2R)-2-hydroxypropyl]sulfonyl-phenyl]-1-methyl-pyrazol-4-yl]pyrazolo[1,5-a]pyrimidine-3-carboxamide], for which, in data set [1], the “Mouse LTB %” value is given as 85%. For the same molecule, the results for the Ki in data set [2] and in data set [3] were 0.2 nM and 0.48 nM, respectively. In addition, the EC50 at 72 h in data set [4] came out at 48000 nM.

Turning to `CN1CCCC1CCn1cc(S(=O)(=O)c2ccc(OC(F)F)c(-c3nn(C)cc3NC(=O)c3cnn4cccnc34)c2)cn1` (stereo in doubt) [Example 56, N-[3-[2-(difluoromethoxy)-5-[1-[2-[(2R)-1-methylpyrrolidin-2-yl]ethyl]pyrazol-4-yl]sulfonyl-phenyl]-1-methyl-pyrazol-4-yl]pyrazolo[1,5-a]pyrimidine-3-carboxamide], the “Mouse LTB %” value in data set [1] is recorded as 91.4%. The Ki came to 0.76 nM in data set [2] and 0.71 nM in data set [3]. In addition, the 50% effective concentration (EC50) at 72 h in data set [4] came out at 10000 nM.

`Cn1cc(NC(=O)c2cnn3cccnc23)c(-c2cc(S(=O)(=O)C3CCC3)ccc2OC(F)F)n1` [Example 2, N-[3-[5-cyclobutylsulfonyl-2-(difluoromethoxy)phenyl]-1-methyl-pyrazol-4-yl]pyrazolo[1,5-a]pyrimidine-3-carboxamide]: the “Mouse LTB %” value in data set [1] worked out at 88.1%. Further, the Ki came out at 0.2 nM in data set [2] and 0.5 nM in data set [3]. The concentration giving a half-maximal response (EC50) at 72 h in data set [4] came to 27500 nM.

`Cn1cc(NC(=O)c2cnn3cccnc23)c(-c2cc(S(=O)(=O)CCO)ccc2OC(F)F)n1` [Example 5, N-[3-[2-(difluoromethoxy)-5-(2-hydroxyethylsulfonyl)phenyl]-1-methyl-pyrazol-4-yl]pyrazolo[1,5-a]pyrimidine-3-carboxamide]: the “Mouse LTB %” value in data set [1] is listed as 80.1%. Further, the Ki in data set [2] was found to be 0.19 nM; in data set [3], 0.43 nM. The concentration giving a half-maximal response (EC50) at 72 h in data set [4] was found to be 10200 nM.

Turning to `CN(C)CCS(=O)(=O)c1ccc(OC(F)F)c(-c2nn(C)cc2NC(=O)c2cnn3cccnc23)c1` [Example 7, N-[3-[2-(difluoromethoxy)-5-[2-(dimethylamino)ethylsulfonyl]phenyl]-1-methyl-pyrazol-4-yl]pyrazolo[1,5-a]pyrimidine-3-carboxamide], the “Mouse LTB %” value in data set [1] turned out to be 78.8%. The figures for the inhibition constant (Ki) in data set [2] and in data set [3] were 0.49 nM and 0.88 nM, respectively. For the same molecule, the EC50 at 72 h in data set [4] stood at 6900 nM.

As to `COCCS(=O)(=O)c1ccc(OC(F)F)c(-c2nn(C)cc2NC(=O)c2cnn3cccnc23)c1` [Example 14, N-[3-[2-(difluoromethoxy)-5-(2-methoxyethylsulfonyl)phenyl]-1-methyl-pyrazol-4-yl]pyrazolo[1,5-a]pyrimidine-3-carboxamide], in data set [1], the “Mouse LTB %” value amounted to 80.1%. Besides, the inhibition constant Ki in data set [3] was determined as 0.49 nM. The EC50 at 72 h in data set [4] is 32000 nM.

`C[C@H](Cn1cc(S(=O)(=O)c2ccc(OC(F)F)c(-c3nn(C)cc3NC(=O)c3cnn4cccnc34)c2)cn1)N(C)C` [Example 59, N-[3-[2-(difluoromethoxy)-5-[1-[(2R)-2-(dimethylamino)propyl]pyrazol-4-yl]sulfonyl-phenyl]-1-methyl-pyrazol-4-yl]pyrazolo[1,5-a]pyrimidine-3-carboxamide]: the figures for the Ki in data set [2] and in data set [3] were 0.54 nM and 0.53 nM, respectively. Also, in data set [4], the EC50 at 72 h is 14000 nM.
